Earlier results as cited in US20120101168A1, “DEUTERIUM ENRICHED RASAGILINE” (priority 2010, published 2012).

Key:
CYP1A2 = CYP1A2 (Homo sapiens, UniProt P05177); conditions: forms several primary metabolites
MAO = conditions: more potent, but not in-vitro

Sequence of CYP1A2 (P05177 whole entry): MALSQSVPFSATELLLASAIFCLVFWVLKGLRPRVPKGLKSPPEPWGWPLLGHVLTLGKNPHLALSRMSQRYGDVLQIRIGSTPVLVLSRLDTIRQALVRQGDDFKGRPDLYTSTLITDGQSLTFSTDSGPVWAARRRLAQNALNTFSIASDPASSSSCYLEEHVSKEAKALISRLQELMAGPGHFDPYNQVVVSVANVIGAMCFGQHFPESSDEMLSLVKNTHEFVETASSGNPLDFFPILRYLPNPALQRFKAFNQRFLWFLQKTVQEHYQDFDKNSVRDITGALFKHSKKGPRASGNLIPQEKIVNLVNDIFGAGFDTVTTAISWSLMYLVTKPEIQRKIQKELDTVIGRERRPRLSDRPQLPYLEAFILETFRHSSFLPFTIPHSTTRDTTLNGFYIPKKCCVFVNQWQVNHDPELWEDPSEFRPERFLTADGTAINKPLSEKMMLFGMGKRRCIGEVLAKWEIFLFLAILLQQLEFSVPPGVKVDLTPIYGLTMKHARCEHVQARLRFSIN

**Q.** For `C#CCN[C@@H]1CCc2ccccc21` [Rasagiline, R(+)-N-propargyl-1-aminoindan], which “metabolism by CYP1A2” value (CYP1A2) is on record?
**A.** Its value is “slowly metabolized”.

**Q.** Which “MAO inhibition potency compared with non-deuterated phenelzine” value (MAO) does the source give for `[2H]C([2H])(NN)C([2H])([2H])c1ccccc1` [deuterated phenelzine] here?
**A.** Its value is “more potent MAO inhibitor”.
